Laboratory results as given in ChEMBL document CHEMBL1201862, “PubChem BioAssay data set” (2004).
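Values below derive from 48-hour exposures of cells grown in 96-well plates, with endpoints linearly interpolated between the two concentrations bracketing the appropriate inhibition level. GI50: concentration for 50% inhibition of growth.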 Active and inactive are the calls of the source. No stated cut-off is given here; in the data, active = GI50 up to about 1.1 µM and inactive = higher.

Tests used:
Assay in all cases: inhibition of tumour cell growth, NCI panel, 48 h
[1] = test system: DU-145
[2] = test system: NCI-H23
[3] = test system: HCT-116
[4] = test system: MDA-MB-435
[5] = test system: SF-268
[6] = test system: SF-295
[7] = test system: NCI/ADR-RES
[8] = test system: A498
[9] = test system: 786-0
[10] = test system: SK-MEL-5
[11] = test system: COLO 205
[12] = test system: MDA-MB-231
[13] = test system: UO-31
[14] = test system: CCRF-CEM
[15] = test system: A549
[16] = test system: SNB-19
[17] = test system: U-251
[18] = test system: M14
[19] = test system: HCC 2998
[20] = test system: SF-539

Measured: GI50

O=C1/C(=C/c2cccc(Oc3ccccc3)c2)N=C(c2ccccc2)N1c1nc2ccc(Sc3ccccc3)cc2[nH]1
inactive: [1] 27.3 µM | [2] 12.1 µM | [3] 30.2 µM | [4] 15.4 µM | [5] 37.7 µM | [6] 19.7 µM | [7] 20.5 µM | [8] 26.1 µM | [9] 32.3 µM | [10] 24.4 µM | [11] 16.9 µM | [12] 19.8 µM | [13] 50.1 µM | [14] 24.6 µM | [15] 42.1 µM | [16] 35.5 µM | [17] 27.4 µM | [18] 24.3 µM | [19] 13.3 µM

CC(C)(C)CC(C)(C)c1cc(O)c(O)c(CN2CCCCC2)c1
inactive: [1] 14.5 µM | [2] 16.1 µM | [3] 15.3 µM | [4] 16.9 µM | [5] 12.6 µM | [6] 17.5 µM | [7] 5.09 µM | [8] 14.3 µM | [9] 13.4 µM | [10] 15.6 µM | [11] 12.7 µM | [12] 17.7 µM | [13] 13.3 µM | [15] 17.1 µM | [16] 15.3 µM | [17] 11.9 µM | [18] 15.6 µM | [19] 10.6 µM

COc1cc(/C=C2/SC(c3ccccc3)N(c3ccc(NC(C)=O)cc3)C2=O)cc(OC)c1OC (stereo not drawn)
inactive: [1] > 100 µM | [2] > 100 µM | [3] > 100 µM | [4] 66.4 µM | [5] 75.2 µM | [6] 61.2 µM | [7] > 100 µM | [8] > 100 µM | [9] > 100 µM | [20] > 100 µM | [10] 34.4 µM | [11] > 100 µM | [12] > 100 µM | [13] 48.8 µM | [15] > 100 µM | [16] > 100 µM | [17] > 100 µM | [18] > 100 µM | [19] > 100 µM

CC(C)(C)COC1C2(OCCO2)C2CCC1(C)C2(C)C (stereo not drawn)
inactive: [1] 35.7 µM | [2] 52.5 µM | [4] 36 µM | [5] 50.2 µM | [6] 18.7 µM | [7] 42 µM | [8] > 100 µM | [9] 19.4 µM | [20] 37.8 µM | [10] 30.3 µM | [11] 28.6 µM | [12] 31.8 µM | [13] 26.2 µM | [14] 18.8 µM | [15] 23.6 µM | [16] 20.6 µM | [17] 18 µM | [18] 44 µM | [19] 37.5 µM

O=C(Cn1c(=O)oc2ccc(C(=O)c3ccc(F)cc3)cc21)c1ccc([N+](=O)[O-])cc1
inactive: [1] 46.7 µM | [2] 45.6 µM | [3] 29.6 µM | [4] 19.3 µM | [5] 45 µM | [7] 33.8 µM | [8] 25.5 µM | [9] 33 µM | [20] 41.1 µM | [10] 15.7 µM | [11] 26.9 µM | [12] 28.9 µM | [13] 19.6 µM | [14] 19.1 µM | [15] 37.1 µM | [16] 47.1 µM | [17] 34.3 µM | [18] 13 µM | [19] 15.9 µM

Oc1nc2nnc(COc3ccc(Cl)cc3Cl)n2nc1Cc1ccccc1
inactive: [1] > 100 µM | [2] 43 µM | [3] 52.5 µM | [4] > 100 µM | [5] 63.4 µM | [6] 32.3 µM | [7] 43.1 µM | [8] 31.3 µM | [9] 20.8 µM | [20] 20.1 µM | [10] > 100 µM | [11] > 100 µM | [12] 43.2 µM | [13] 24.2 µM | [14] 33 µM | [15] 94.2 µM | [16] 31.6 µM | [17] 23.8 µM | [18] > 100 µM

Nc1nc(Cl)cc(NCC2(CO)CCCCC2)n1
inactive: [1] > 100 µM | [2] 48.9 µM | [3] > 100 µM | [4] > 100 µM | [5] > 100 µM | [6] > 100 µM | [7] 39.7 µM | [8] 70.8 µM | [9] > 100 µM | [20] > 100 µM | [10] 44 µM | [11] > 100 µM | [12] > 100 µM | [13] > 100 µM | [14] > 100 µM | [15] > 100 µM | [16] > 100 µM | [17] > 100 µM | [18] > 100 µM

COc1cc2c(c(OC)c1)/C(=C/Sc1ccccc1)C(=O)N(C(C)(C)C)C2
inactive: [1] > 100 µM | [2] 26.3 µM | [3] 16.4 µM | [4] 22.2 µM | [5] 14.1 µM | [6] 27.2 µM | [7] 11.7 µM | [8] 32.4 µM | [9] 28.5 µM | [20] 44.7 µM | [10] 17.5 µM | [11] 26.2 µM | [12] 23.4 µM | [14] 29.2 µM | [17] 29.8 µM | [19] 37.8 µM
